Experimental data: patent US20110230476A1, “PI3 KINASE INHIBITORS AND USES THEREOF” (AVILA THERAPEUTICS, INC., priority 2009, published 2011)

Experiments:
PI3Kγ (p120γ) = biological target: T1, PI3Kγ (p120γ) (Homo sapiens, UniProt P48736); assay: HTRF assay, potency against active PI3Kγ; assay type: biochemical; details: [ATP]=50 μM, [di-C8-PIP2]=10 μM, 30 min pre-incubation, read-out: PI3Kγ Inhibition
T1 construct: purchased BPS Bioscience (San Diego, Calif.) or Millipore (Billerica, Mass.)
From the text: Homogeneous Time Resolved Fluorescence (HTRF) Assay Protocol for Potency Assessment Against the Active Forms of PI3Kα, PI3Kβ, and PI3Kγ
The protocol below describes an end-point, competition-binding HTRF assay used to measure inherent potency of test compounds against active PI3Kα (p110α/p85α), PI3Kβ (p110β/p85α), and PI3Kγ (p120γ) enzymes. The mechanics of the assay platform are best described by the vendor (Millipore, Billerica, Mass.) on their website at the following URL: www.millipore.com/coa/tech1/74jt4z.
Briefly, Stop solution (Stop A, #33-007 and Stop B, #33-009; 3:1 ratio) and Detection Mix (from DMC, #33-015 with DMA, #33-011 and DMB, #33-013; 18:1:1 ratio) were prepared as recommended by the manufacturer about 2 hrs prior to use. Additionally, 1× reaction buffer (from 4× buffer stock# 33-003), 1.4× stocks of PI3Kα, PI3Kβ, and PI3Kγ enzymes from BPS Bioscience (San Diego, Calif.) or Millipore (Billerica, Mass.) with di-C8-PIP2 lipid substrate (#33-005), and a 4×ATP solution (#A7699 Sigma/Aldrich; St. Louis, Mo.) were prepared in 1× reaction buffer. 15 μL of PI3K enzymes and lipid substrate mix were pre-incubated in a Corning (#3573) 384-well, black, non-treated microtiter plate (Corning, N.Y.) for 30 min at 25° C. with a 0.5 μL volume of 50% DMSO and serially diluted compounds prepared in 50% DMSO. Lipid kinase reactions were started with the addition of 5 μL of ATP solution, mixed for 15 sec on a rotary plate shaker and incubated for 30-60 minutes at 25° C. Next, reactions were stopped with a 5 μL addition of Stop solution immediately followed by a 5 μL volume of Detection Mix. Stopped reactions were equilibrated for 1 and 18 hrs at room temperature and read in a Synergy^4 plate reader from BioTek (Winooski, Vt.) at λex330-80/λem620-35 and λem665-7.5. At the conclusion of each assay, the HTRF ratio from fluorescence emission values for each well was calculated and % Inhibition determined from averaged controls wells (+/−PI3K enzyme). % Inhibition values for each compound were then plotted against inhibitor concentration to estimate IC50 from log [Inhibitor] vs Response, Variable Slope model in GraphPad Prism from GraphPad Software (San Diego, Calif.).
[Reagent] used in optimized protocol: • [p110α/p85α]=0.5-1.5 nM, [ATP]=50 μM, [di-C8—PIP2]=10 μM • [p110β/p85α]=0.75 nM, [ATP]=50 μM, [di-C8—PIP2]=10 μM • [p120γ]=2-2.5 nM, [ATP]=50 μM, [di-C8—PIP2]=10 μM • (ATP KMapp for both enzymes was estimated to be 40-70 μM)

PI3Kα (p110α/p85α) = biological target: T2, PI3Kα (p110α/p85α) (Homo sapiens, UniProt P42336); assay: HTRF assay, potency against active PI3Kα; assay type: biochemical; details: HTRF; [ATP]=50 μM, [di-C8-PIP2]=10 μM; 30 min pre-incubation; read-out: PI3Kα Inhibition
T2 construct: purchased BPS Bioscience (San Diego, Calif.) or Millipore (Billerica, Mass.)
T2 sequence (P42336 whole entry): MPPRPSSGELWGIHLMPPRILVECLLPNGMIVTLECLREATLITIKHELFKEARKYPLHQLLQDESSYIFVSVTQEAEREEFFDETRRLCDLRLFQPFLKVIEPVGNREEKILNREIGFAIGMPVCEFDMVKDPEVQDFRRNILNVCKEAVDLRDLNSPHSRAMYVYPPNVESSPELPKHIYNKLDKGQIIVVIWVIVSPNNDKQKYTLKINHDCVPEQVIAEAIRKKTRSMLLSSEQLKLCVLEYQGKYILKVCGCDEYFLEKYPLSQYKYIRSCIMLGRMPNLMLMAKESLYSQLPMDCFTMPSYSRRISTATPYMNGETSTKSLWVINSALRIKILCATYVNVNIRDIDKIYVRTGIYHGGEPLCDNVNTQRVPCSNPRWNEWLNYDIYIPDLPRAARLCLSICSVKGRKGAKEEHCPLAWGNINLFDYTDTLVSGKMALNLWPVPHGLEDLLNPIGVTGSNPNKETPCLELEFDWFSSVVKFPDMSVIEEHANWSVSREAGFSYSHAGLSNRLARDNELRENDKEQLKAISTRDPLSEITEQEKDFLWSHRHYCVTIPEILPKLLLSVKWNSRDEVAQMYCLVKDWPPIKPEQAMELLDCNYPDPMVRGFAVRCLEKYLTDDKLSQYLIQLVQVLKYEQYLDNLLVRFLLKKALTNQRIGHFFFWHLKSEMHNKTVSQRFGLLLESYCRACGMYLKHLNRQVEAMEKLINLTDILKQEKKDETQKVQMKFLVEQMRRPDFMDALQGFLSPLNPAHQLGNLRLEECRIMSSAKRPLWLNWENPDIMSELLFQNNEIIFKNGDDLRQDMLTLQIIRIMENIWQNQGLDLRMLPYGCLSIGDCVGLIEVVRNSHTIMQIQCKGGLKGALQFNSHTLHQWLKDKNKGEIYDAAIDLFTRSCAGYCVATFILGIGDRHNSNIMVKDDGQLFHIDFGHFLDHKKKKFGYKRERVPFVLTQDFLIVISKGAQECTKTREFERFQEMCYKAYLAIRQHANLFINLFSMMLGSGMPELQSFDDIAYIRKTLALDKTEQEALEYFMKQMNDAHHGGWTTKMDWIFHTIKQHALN
T2 sequence (P27986 whole entry partner): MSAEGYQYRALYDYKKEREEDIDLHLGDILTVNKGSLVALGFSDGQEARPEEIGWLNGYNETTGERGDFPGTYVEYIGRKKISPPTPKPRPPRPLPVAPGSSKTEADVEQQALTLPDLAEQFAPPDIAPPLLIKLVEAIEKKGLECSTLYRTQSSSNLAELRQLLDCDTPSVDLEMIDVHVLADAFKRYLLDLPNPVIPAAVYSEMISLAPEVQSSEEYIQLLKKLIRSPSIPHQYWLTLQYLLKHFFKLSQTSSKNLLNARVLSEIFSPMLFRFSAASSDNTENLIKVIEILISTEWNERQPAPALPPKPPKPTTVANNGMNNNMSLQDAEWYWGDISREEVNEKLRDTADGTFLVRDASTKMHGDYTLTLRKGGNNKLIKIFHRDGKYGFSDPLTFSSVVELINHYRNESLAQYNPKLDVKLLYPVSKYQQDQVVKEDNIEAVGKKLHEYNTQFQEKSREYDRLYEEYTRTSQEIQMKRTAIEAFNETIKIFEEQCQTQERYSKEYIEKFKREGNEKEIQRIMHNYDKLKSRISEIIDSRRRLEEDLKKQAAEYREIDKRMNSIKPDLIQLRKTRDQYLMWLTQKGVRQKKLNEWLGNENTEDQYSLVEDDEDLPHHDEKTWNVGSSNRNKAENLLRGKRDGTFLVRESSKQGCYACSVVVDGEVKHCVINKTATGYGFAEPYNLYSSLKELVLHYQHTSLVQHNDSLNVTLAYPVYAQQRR
Method in brief: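 IC50 came from a variable-slope fit of % inhibition, calculated from the HTRF emission ratio relative to wells with and without enzyme. Reactions with the active enzyme complex ran 30-60 minutes at 25 °C after ATP addition before stop and detection reagents.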

Phospho-Akt(Ser473) = assay: Dose response in SKOV3 cells as determined by in-cell Western; assay type: cell-based; details: Homo sapiens, SK-OV-3; SKOV3 cells, 1 hr; read-out: pAKT Inhibition in cell Western
Protocol: Dose Response in SKOV3 Cells as Determined by in-Cell Western
Twenty four hours later the media was removed and replaced with 100 ul media containing test compound or control compound and cells were returned to the incubator for 1 hr. At the end of the hour, the media was removed and the cells were washed once with PBS, then fixed for 20 minutes at room temperature in 4% formaldehyde in PBS. The formaldehyde was removed and cells were washed 5 times for 5 minutes with 100 ul of Permeabilization Buffer (PBS+0.1% Triton X-100) at room temperature with gentle shaking. The last wash was removed and replaced with 150 ul of Odyssey Blocking Buffer (Li-Cor, Lincoln, Nebr.) and incubated for 90 minutes at room temperature with gentle shaking.
The Blocking Buffer was then replaced with 50 ul of primary antibody mix (rabbit anti-Phospho-Akt(Ser473) at 1:100 (Cell Signaling Technology, Boston, Mass.) and mouse anti-tubulin at 1:5000 (Sigma Aldrich, St. Louis, Mo.) diluted in Odyssey Blocking Buffer) and incubated overnight at room temperature with gentle shaking.
The next morning, the antibody mix was removed and the wells were washed 5 times for 5 minutes with PBS+0.1% Tween-20. The last wash was replaced with 50 ul of secondary antibody mix (goat anti-rabbit-IRDye-680 and goat anti-mouse-IRDye-800 (Li-Cor), both diluted 1:1000 in Odyssey Blocking Buffer+0.2% Tween-20) and incubated for 1 hour at room temperature with gentle shaking. The antibody mix was removed and the wells were washed 5 times for 5 minutes in PBS+0.1% Tween-20, then 1 time with ddH2O.
The plates were scanned on an Odyssey machine (Li-Cor) with a 3 mm focus offset at an intensity of 8 in both channels and the data was analyzed using the Odyssey software.

T1 sequence (P48736 whole entry): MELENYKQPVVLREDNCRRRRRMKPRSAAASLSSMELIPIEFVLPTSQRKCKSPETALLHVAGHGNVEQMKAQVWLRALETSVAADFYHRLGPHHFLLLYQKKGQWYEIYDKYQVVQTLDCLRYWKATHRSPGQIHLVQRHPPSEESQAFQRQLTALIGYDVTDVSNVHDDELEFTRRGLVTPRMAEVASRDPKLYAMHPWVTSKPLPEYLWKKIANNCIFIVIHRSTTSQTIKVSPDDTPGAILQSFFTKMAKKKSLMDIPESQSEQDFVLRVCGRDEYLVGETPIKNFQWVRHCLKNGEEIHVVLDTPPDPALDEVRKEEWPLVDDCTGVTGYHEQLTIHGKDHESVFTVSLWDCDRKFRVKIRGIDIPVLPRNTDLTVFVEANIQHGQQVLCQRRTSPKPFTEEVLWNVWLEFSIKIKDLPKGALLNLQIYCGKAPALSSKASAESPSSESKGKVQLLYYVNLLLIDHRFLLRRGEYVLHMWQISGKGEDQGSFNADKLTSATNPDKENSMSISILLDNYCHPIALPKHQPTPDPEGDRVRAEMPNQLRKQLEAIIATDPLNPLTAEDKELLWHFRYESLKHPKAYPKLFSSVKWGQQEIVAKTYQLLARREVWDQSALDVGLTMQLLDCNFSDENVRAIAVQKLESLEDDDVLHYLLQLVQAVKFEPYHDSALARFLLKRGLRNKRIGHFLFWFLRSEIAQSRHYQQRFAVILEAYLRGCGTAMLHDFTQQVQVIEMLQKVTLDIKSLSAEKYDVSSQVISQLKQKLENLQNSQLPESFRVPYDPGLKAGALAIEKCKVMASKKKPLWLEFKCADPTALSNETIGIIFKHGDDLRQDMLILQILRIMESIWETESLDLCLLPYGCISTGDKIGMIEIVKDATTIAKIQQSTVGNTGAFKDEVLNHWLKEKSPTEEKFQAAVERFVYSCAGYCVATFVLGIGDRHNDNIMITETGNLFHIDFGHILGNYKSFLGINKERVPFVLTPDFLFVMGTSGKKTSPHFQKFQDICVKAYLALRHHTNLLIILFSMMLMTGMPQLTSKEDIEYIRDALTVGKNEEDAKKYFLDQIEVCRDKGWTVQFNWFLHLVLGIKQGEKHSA

IC50 (PI3Kγ (p120γ))	IC50 (PI3Kα (p110α/p85α))	EC50 (Phospho-Akt(Ser473))	SMILES
> 1000 nM	100 to 1000 nM		C=CC(=O)N1CCN(C(=O)C2CCN(Cc3cc4nc(-c5cccc(O)c5)nc(N5CCOCC5)c4s3)CC2)CC1 [II-a-34, (1-((2-(3-hydroxyphenyl)-4-morpholinothieno[3,2-d]pyrimidin-6-yl)methyl)piperidin-4-yl)(4-acryloyl-piperazin-1-yl)methanone]
100 to 1000 nM	10 to 100 nM		C/C=C/C(=O)CCC(=O)N(C)Cc1cc2nc(-c3cccc(O)c3)nc(N3CCOCC3)c2s1 [II-a-40, (E)-N-((2-(3-hydroxyphenyl)-4-morpholinothieno[3,2-d]pyrimidin-6-yl)methyl)-N-methyl-4-oxohept-5-enamide]
> 1000 nM	> 1000 nM		C=CC(=O)N[C@H]1CC[C@H](C(=O)N(C)Cc2cc3nc(-c4cccc(O)c4)nc(N4CCOCC4)c3s2)CC1 [II-a-42]
> 1000 nM	100 to 1000 nM		C/C=C/C(=O)CCC(=O)NCCS(=O)(=O)N1CCN(Cc2cc3nc(-c4cccc5[nH]ncc45)nc(N4CCOCC4)c3s2)CC1 [II-a-23, (E)-N-(2-(4-((2-(1H-indazol-4-yl)-4-morpholinothieno[3,2-d]pyrimidin-6-yl)methyl)piperazin-1-ylsulfonyl)ethyl)-4-oxohept-5-enamide]
> 1000 nM	10 to 100 nM		C=CC(=O)N(C)Cc1cc2nc(-c3cccc(O)c3)nc(N3CCOCC3)c2s1 [II-a-39, N-((2-(3-hydroxyphenyl)-4-morpholinothieno[3,2-d]pyrimidin-6-yl)methyl)-N-methylacrylamide]
> 1000 nM	100 to 1000 nM		C=CC(=O)N1Cc2ccc(-c3cc4nc(-c5cccc(O)c5)nc(N5CCOCC5)c4s3)cc2C1 [II-a-27, 1-(5-(2-(3-hydroxyphenyl)-4-morpholinothieno[3,2-d]pyrimidin-6-yl)isoindolin-2-yl)prop-2-en-1-one]
> 1000 nM	10 to 100 nM		C=CC(=O)NCCS(=O)(=O)N1CCN(Cc2cc3nc(-c4cccc5[nH]ncc45)nc(N4CCOCC4)c3s2)CC1 [II-a-13, N-(2-(4-((2-(1H-indazol-4-yl)-4-morpholinothieno[3,2-d]pyrimidin-6-yl)methyl)piperazin-1-ylsulfonyl)ethyl)acrylamide]
> 1000 nM	> 1000 nM		C=CC(=O)NCc1ccc(C(=O)N2CCN(Cc3cc4nc(-c5cccc6[nH]ncc56)nc(N5CCOCC5)c4s3)CC2)cc1 [II-a-21, N-(4-(4-((2-(1H-indazol-4-yl)-4-morpholinothieno[3,2-d]pyrimidin-6-yl)methyl)piperazine-1-carbonyl)benzyl)acrylamide]
> 1000 nM	100 to 1000 nM		CCCC(=O)CCC(=O)NCC(=O)N1CCN(Cc2cc3nc(-c4cccc5[nH]ncc45)nc(N4CCOCC4)c3s2)CC1 [II^R-a-16]
	100 to 1000 nM	10 to 100 nM	O=C(/C=C/c1cccnc1)CCC(=O)N1CCN(Cc2cc3nc(-c4cccc5[nH]ncc45)nc(N4CCOCC4)c3s2)CC1 [II-a-132, (E)-1-(4-((2-(1H-indazol-4-yl)-4-morpholinothieno[3,2-d]pyrimidin-6-yl)methyl)piperazin-1-yl)-6-(pyridin-3-yl)hex-5-ene-1,4-dione]
	100 to 1000 nM	10 to 100 nM	C=CC(=O)Nc1ccc(OCc2cc(-c3cnc(N)nc3)nc(N3CCOCC3)c2)cc1 [XII-5, N-(4-((2-(2-aminopyrimidin-5-yl)-6-morpholinopyridin-4-yl)methoxy)phenyl)acrylamide]
	10 to 100 nM	10 to 100 nM	C=CC(=O)Nc1ccc(C#Cc2cc(-c3cnc(N)nc3)nc(N3CCOCC3)c2)cc1 [XII-4, N-(4-((2-(2-aminopyrimidin-5-yl)-6-morpholinopyridin-4-yl)ethynyl)phenyl)acrylamide]
	100 to 1000 nM	≤ 10 nM	COC/C=C(\C)C(=O)CCC(=O)N1CCN(Cc2cc3nc(-c4cccc5[nH]ncc45)nc(N4CCOCC4)c3s2)CC1 [II-a-161, (E)-1-(4-((2-(1H-indazol-4-yl)-4-morpholinothieno[3,2-d]pyrimidin-6-yl)methyl)piperazin-1-yl)-7-methoxy-5-methylhept-5-ene-1,4-dione]
	10 to 100 nM	100 to 1000 nM	Cc1ccc(/C=C/C(=O)CCC(=O)N2CCN(Cc3cc4nc(-c5cccc6[nH]ncc56)nc(N5CCOCC5)c4s3)CC2)cc1 [II-a-139, (E)-1-(4-((2-(1H-indazol-4-yl)-4-morpholinothieno[3,2-d]pyrimidin-6-yl)methyl)piperazin-1-yl)-6-p-tolylhex-5-ene-1,4-dione]
	100 to 1000 nM	≤ 10 nM	C/C=C/C(=O)CCCC(=O)Nc1ccc(S(=O)(=O)Nc2cc(-c3ccc4nccc(-c5ccncc5)c4c3)cnc2OC)cc1 [X-1, (E)-N-(4-(N-(2-methoxy-5-(4-(pyridin-4-yl)quinolin-6-yl)pyridin-3-yl)sulfamoyl)phenyl)-5-oxooct-6-enamide]
	100 to 1000 nM	100 to 1000 nM	CC(C)=CC(=O)c1ccc(C(=O)N2CC=C(c3cc(-c4cnc(N)nc4)nc(N4CCOCC4)c3)CC2)cc1 [XII-50, 1-(4-(4-(2-(2-aminopyrimidin-5-yl)-6-morpholinopyridin-4-yl)-1,2,3,6-tetrahydropyridine-1-carbonyl)phenyl)-3-methylbut-2-en-1-one]
	< 10 nM	10 to 100 nM	C=C(CC)C(=O)CCC(=O)N1CCN(c2ccc(-c3ccnc4ccc(/C=C5\SC(=O)NC5=O)cc34)cn2)CC1 [V-20, (Z)-5-((4-(6-(4-(5-methylene-4-oxoheptanoyl)piperazin-1-yl)pyridin-3-yl)quinolin-6-yl)methylene)thiazolidine-2,4-dione]
	100 to 1000 nM	100 to 1000 nM	C=CC(=O)Nc1ccc(S(=O)(=O)N2CCN(Cc3cc4nc(-c5cccc6[nH]ncc56)nc(N5CCOCC5)c4s3)CC2)cc1 [II-a-118, N-(4-(4-((2-(1H-indazol-4-yl)-4-morpholinothieno[3,2-d]pyrimidin-6-yl)methyl)piperazin-1-ylsulfonyl)phenyl)acrylamide]
	100 to 1000 nM	≤ 10 nM	O=C(/C=C/c1cccs1)CCC(=O)N1CCN(Cc2cc3nc(-c4cccc5[nH]ncc45)nc(N4CCOCC4)c3s2)CC1 [II-a-126, (E)-1-(4-((2-(1H-indazol-4-yl)-4-morpholinothieno[3,2-d]pyrimidin-6-yl)methyl)piperazin-1-yl)-6-(thiophen-2-yl)hex-5-ene-1,4-dione]
	10 to 100 nM	100 to 1000 nM	Cc1ccccc1/C=C/C(=O)CCC(=O)N1CCN(Cc2cc3nc(-c4cccc5[nH]ncc45)nc(N4CCOCC4)c3s2)CC1 [II-a-138, (E)-1-(4-((2-(1H-indazol-4-yl)-4-morpholinothieno[3,2-d]pyrimidin-6-yl)methyl)piperazin-1-yl)-6-o-tolylhex-5-ene-1,4-dione]
